Experimental data published in patent US9616037B2, “Aryl-phenyl-sulfonamido-cycloalkyl compounds and their use” (PIMCO 2664 Limited, priority 2008, dated 2017).
≈ marks a conversion by molar mass, not a printed value.

Test system: J774 macrophages
Experiment: Alamar Blue macrophage J774 viability assay
Format: cell-based
Conditions: J774 cells, 72 hours with compound, Alamar Blue readout
Protocol: (§1) Initial screening of candidate compounds was performed using in vitro assays to determine potency, metabolic stability and solubility in biologically relevant fluids. Potency was assessed using a viability assay based on the survival of the J774 macrophage cell line. Macrophages are closely related to osteoclasts and have been used previously as a model system for osteoclast survival (see, e.g., Luckman et al., 1998). Like osteoclasts, J774 macrophages are dependent on continued NFκB activation for survival, thereby providing a valuable screen for compounds with anti-inflammatory activity. Metabolic stability was measured by determining the rate of disappearance of compound in the presence of human liver microsomal preparations, as quantified by LC-MS/MS. Solubility was measured by equilibration of the compound in fasted state simulated intestinal fluid (FaSSIF) and quantified by HPLC.
In vitro potency as anti-inflammatory agents was determined for a number of APSAC compounds by incubation with J774 macrophages and subsequent determination of cell viability.
J774 cells were plated at 10^4 cells per well in 100 μL αMEM (α Modified Eagle Medium) in 96-well plates and grown overnight. The next day, test compounds were added to the cultures, and cultures were continued for another 72 hours. At the end of the culture period, cell survival was determined using an Alamar Blue assay as previously described (see, e.g., Nociari et al., 1998).
Alamar Blue is an oxidation-reduction sensitive indicator. The dye itself is in the oxidised state, which is blue and non-fluorescent. The dye can accept electrons from reducing species, such as NADPH and FADH, to form a reduced dye species, which is red and fluorescent. Thus the transformation from oxidised form to reduced form can be measured by fluorimetric or colourimetric means. For fluorescence measurements, 530-560 nm excitation and 590 nm emission wavelengths are typically used. For colourimetric measurements, absorbance at 570 nm (reduced form) and 600 nm (oxidised form) is typically measured. A simple calculation is performed to determine the relative quantities of the two species.
A high ratio of the reducing species, NADPH and FADH, to the corresponding oxidised species, NADP and FAD, is an indicator that cells are proliferating and viable. A low ratio indicates cells that are quiescent or non-viable.
Briefly, Alamar Blue (Biosource International) was added undiluted to the each well (1:10 v/v, 10 μL). The plate was incubated at 37° C. for 3-4 hours and the fluorescence was measured at 590 nm, with a 25 nm bandwidth. A high reading indicated cells with normal viability, and a low reading indicated cells that have been damaged and are no longer proliferating normally. The controls gave a high fluorescence reading, indicating a high number of live, healthy cells. A potent test compound gave a low fluorescence reading. The average results for each test compound (n=5) were expressed as a percent (%) of the average control value.
Addition of Compounds. All of the compounds studied were made up as 100 mM solutions in DMSO. These stock solutions were then diluted 1000-10000× in culture medium (αMEM). From these 100 μM or 10 μM solutions, convenient quantities (3-33 μL) were added directly to the wells so as to give the desired final compound concentration.

Row | Structure (SMILES) | IC50
1 | O=S(=O)(N[C@H]1CC[C@H](O)CC1)c1ccc(-c2cncnc2)cc1 [ABD861, N-(trans-4-Hydroxycyclohexyl)-4-(pyrimidin-5-yl)benzenesulfonamide] | Inactive

Same assay, conditions: J774 cells, 72 hours with compound, Alamar Blue readout; read-out: IC50

Row | Structure (SMILES) | IC50 [nM]
2 | O=S(=O)(Nc1cccc(CO)c1)c1ccc(-c2ccc(Cl)cc2F)cc1 [ABD575, reference compound] | 400

Same assay, conditions: Mus musculus; J774 cells, 72 hours with compound, Alamar Blue readout; read-out: IC50

Row | Structure (SMILES) | IC50 [nM]
3 | O=S(=O)(Nc1cccc(CO)c1)c1ccc(-c2ccc(F)cc2F)cc1 [ABD456, 2′,4′-difluoro-biphenyl-4-sulfonic acid (3-hydroxymethyl-phenyl)-amide, reference compound] | 250
4 | O=S(=O)(Nc1ccc(CO)cc1)c1ccc(-c2ccc(F)cc2F)cc1 [ABD466, 2′,4′-difluoro-biphenyl-4-sulfonic acid (4-hydroxymethyl-phenyl)-amide, reference compound] | 3000
5 | O=S(=O)(N[C@H]1CC[C@H](O)CC1)c1ccc(-c2ccc(OC(F)(F)F)cc2)c(F)c1 [ABD665, 2-Fluoro-N-(trans-4-hydroxycyclohexyl)-4′-(trifluoromethoxy)biphenyl-4-sulfonamide] | 4900
6 | O=S(=O)(N[C@H]1CC[C@H](O)CC1)c1ccc(-c2ccc(F)cc2F)cc1Cl [ABD705, 3-Chloro-2′,4′-difluoro-N-(trans-4-hydroxycyclohexyl)biphenyl-4-sulfonamide] | 830
7 | COc1ccc(-c2ccc(S(=O)(=O)N[C@H]3CC[C@H](O)CC3)cc2F)cc1 [ABD710, 2-Fluoro-N-(trans-4-hydroxycyclohexyl)-4′-methoxybiphenyl-4-sulfonamide] | 1980
8 | O=S(=O)(N[C@H]1CC[C@H](O)CC1)c1ccc(-c2ccc(Cl)c(C(F)(F)F)c2)cc1 [ABD712, 4′-Chloro-N-(trans-4-hydroxycyclohexyl)-3′-(trifluoromethyl)biphenyl-4-sulfonamide] | 5460
9 | N#Cc1ccc(-c2ccc(S(=O)(=O)N[C@H]3CC[C@H](O)CC3)c(Cl)c2)cc1 [ABD732, 3-Chloro-4′-cyano-N-(trans-4-hydroxycyclohexyl)biphenyl-4-sulfonamide] | 4320
10 | Cc1cc(S(=O)(=O)N[C@H]2CC[C@H](O)CC2)ccc1-c1ccc(F)cc1F [ABD735, 2′,4′-Difluoro-N-(trans-4-hydroxycyclohexyl)-2-methylbiphenyl-4-sulfonamide] | 90
11 | Cc1cc(S(=O)(=O)N[C@H]2CC[C@H](O)CC2)ccc1-c1ccc(OC(F)(F)F)cc1 [ABD742, N-(trans-4-Hydroxycyclohexyl)-2-methyl-4′-(trifluoromethoxy)biphenyl-4-sulfonamide] | 770
12 | O=S(=O)(N[C@H]1CC[C@H](O)CC1)c1ccc(-c2ccc(Cl)cc2Cl)cc1OC(F)(F)F [ABD756, 2′,4′-Dichloro-N-(trans-4-hydroxycyclohexyl)-3-(trifluoromethoxy)biphenyl-4-sulfonamide] | 2180
13 | CNC1CCC(NS(=O)(=O)c2ccc(-c3ccc(F)cc3F)cc2)CC1 (centres unmarked) [ABD816, 2′,4′-Difluoro-N-(4-(methylamino)cyclohexyl)biphenyl-4-sulfonamide] | 800
14 | CCNC1CCC(NS(=O)(=O)c2ccc(-c3ccc(F)cc3F)cc2)CC1 (centres unmarked) [ABD817, N-(4-(Ethylamino)cyclohexyl)-2′,4′-difluorobiphenyl-4-sulfonamide] | < 1000
15 | CCN(CC)C1CCC(NS(=O)(=O)c2ccc(-c3ccc(F)cc3F)cc2)CC1 (centres unmarked) [ABD819, N-(4-(Diethylamino)cyclohexyl)-2′,4′-difluorobiphenyl-4-sulfonamide] | 2400
16 | O=S(=O)(NC1CCC(N2CCCC2)CC1)c1ccc(-c2ccc(F)cc2F)cc1 (centres unmarked) [ABD820, 2′,4′-Difluoro-N-(4-(pyrrolidin-1-yl)cyclohexyl)biphenyl-4-sulfonamide] | 2500
17 | O=S(=O)(NC1CCC(N2CCOCC2)CC1)c1ccc(-c2ccc(F)cc2F)cc1 (centres unmarked) [ABD821, 2′,4′-Difluoro-N-(4-morpholinocyclohexyl)biphenyl-4-sulfonamide] | > 10000
18 | CCN(C)C1CCC(NS(=O)(=O)c2ccc(-c3ccc(F)cc3F)cc2)CC1 (centres unmarked) [ABD822, N-(4-(Ethyl(methyl)amino)cyclohexyl)-2′,4′-difluorobiphenyl-4-sulfonamide] | 6980
19 | CNC[C@H]1CC[C@@H](NS(=O)(=O)c2ccc(-c3ccc(F)cc3F)cc2)CC1 [ABD824, 2′,4′-Difluoro-N-(cis-4-((methylamino)methyl)cyclohexyl)biphenyl-4-sulfonamide] | 7200
20 | CN(C)C[C@H]1CC[C@@H](NS(=O)(=O)c2ccc(-c3ccc(F)cc3F)cc2)CC1 [ABD826, N-(cis-4-((Dimethylamino)methyl)cyclohexyl)-2′,4′-difluorobiphenyl-4-sulfonamide] | 1000
21 | O=S(=O)(N[C@H]1CC[C@H](O)CC1)c1ccc(-c2ncc(Cl)cc2Cl)cc1 [ABD836, 4-(3,5-Dichloropyridin-2-yl)-N-(trans-4-hydroxycyclohexyl) benzene sulfonamide] | 280
22 | O=S(=O)(N[C@H]1CC[C@H](O)CC1)c1ccc(-c2ncc(Cl)cn2)cc1 [ABD837, 4-(5-Chloropyrimidin-2-yl)-N-(trans-4-hydroxycyclohexyl)benzenesulfonamide] | 8880
23 | O=S(=O)(N[C@H]1CC[C@@H](NCC(F)(F)F)CC1)c1ccc(-c2ccc(F)cc2F)cc1 [ABD864, 2′,4′-Difluoro-N-(cis-4-(2,2,2-trifluoroethylamino)cyclohexyl)biphenyl-4-sulfonamide] | > 10000
24 | O=S(=O)(N[C@H]1CC[C@H](NCC(F)(F)F)CC1)c1ccc(-c2ccc(F)cc2F)cc1 [ABD865, 2′,4′-Difluoro-N-(trans-4-(2,2,2-trifluoroethylamino)cyclohexyl)biphenyl-4-sulfonamide] | 5900

Test system: not listed separately
Experiment: Thermodynamic aqueous solubility in fasted state simulated intestinal fluid (FaSSIF)
Format: physicochemical
Conditions: equilibrated at 25° C. for 24 hours, HPLC
Protocol: as §1, with “Macrophages are closely related to osteoclasts and have been used previously as a model system for osteoclast survival (see, e.g., Luckman et al., 1998).” left out
Thermodynamic aqueous solubility was measured by equilibration of a number of APSAC compounds, in the solid state, with fasted state simulated intestinal fluid (FaSSIF) and quantified by HPLC. Measurement of solubility in FaSSIF provides a valuable model for the prediction of drug dissolution following oral administration.
The pH was adjusted to 6.5 using 1 M NaOH solution.
0.6 mL of a solution containing 100 mg/mL lecithin in methylene chloride was added. The methylene chloride was eliminated under vacuum at about 40° C. The vacuum was drawn for 15 minutes at 250 mbar, followed by 15 minutes at 100 mbar. […] After cooling to room temperature, the solution was then adjusted to 100 mL with blank FaSSIF.
The suspension was equilibrated at 25° C. for 24 hours, and then the pH was measured. The suspension was then filtered through a glass fibre C filter into a 96-well plate. The filtrate was then diluted by a factor of 100. Quantification was made by HPLC with reference to a standard solution of compound at approximately 0.1 mg/mL in DMSO. Different volumes of the standard, diluted and undiluted sample solutions were injected. […] Analysis was performed on an Agilent HP1100 series system equipped with a diode array detector and using ChemStation software vB.02.01-SR1.

Row | Structure (SMILES) | Solubility [µg/mL]
25 | O=S(=O)(Nc1cccc(CO)c1)c1ccc(-c2ccc(F)cc2F)cc1 [ABD456, 2′,4′-difluoro-biphenyl-4-sulfonic acid (3-hydroxymethyl-phenyl)-amide, reference compound] | 40 (≈ 107 µM)
26 | O=S(=O)(Nc1cccc(CO)c1)c1ccc(-c2ccc(Cl)cc2F)cc1 [ABD575, reference compound] | 70 (≈ 179 µM)
